# According to patent US20260191863A1, “PYRROLOPYRIMIDINE COMPOSITIONS FOR TREATMENT OF ITK MEDIATED CONDITIONS” (ACLARIS THERAPEUTICS, INC., priority 2022, published 2026):
# Like-named read-outs stand apart in the source and are kept apart here.
# Assay: Phase 1 multiple ascending dose (MAD) study: pharmacokinetics
# Format: in vivo, human
# Settings: for AUC(0-inf): read-out: Geometric Mean AUCINF_obs; for AUC(0-t): read-out: Geometric Mean AUC_0-12; for Tmax: read-out: Geometric Mean Tmax; for AUC: read-out: AUC0-τ
# Description: Secondary Endpoints—Compound I plasma concentrations and PK parameters: AUC0-tau, AUC0-inf, Ctrough, Cmax, tmax, Kel, t1/2, CLss/F, Vss/F, Rae.
# Overall Design—This was a randomized, Investigator and participant-blind. Sponsor-unblinded, placebo-controlled study designed to evaluate the safety, tolerability, PK, and PD of Compound I in healthy participants. The study consisted of multiple cohorts assessing ascending doses of Compound I.
# Approximately 60 participants were enrolled into 5 cohorts. At each dose level/cohort, a total of 10 participants were randomized to receive 2 weeks of oral doses of Compound I (n=8) or placebo (n=2). In Cohort 3, 20 participants were randomized to receive multiple oral doses of Compound I QD (n=8), Compound I TID (n=8), placebo QD (n=2), or placebo TID (n=2).
# The study started with a planned dose of 5 mg twice daily (BID). Escalation to the next higher cohort was dependent on safety and PK data from all participants in the previous cohorts and was based on data from at least 6 participants up to at least 48 hours after the last dose. In no instance did the dose escalation steps exceed 3-fold the prior dose level.
# [1] = human, plasma, oral, 5 mg, Cohort 1, 5 mg BID, Day 1
# [2] = human, plasma, oral, 5 mg, Cohort 1, 5 mg BID, Day 7
# [3] = human, plasma, oral, 5 mg, Cohort 1, 5 mg BID, Day 15
# [4] = human, plasma, oral, 15 mg, Cohort 2, 15 mg BID, Day 1
# [5] = human, plasma, oral, 15 mg, Cohort 2, 15 mg BID, Day 7
# [6] = human, plasma, oral, 15 mg, Cohort 2, 15 mg BID, Day 15
# [7] = human, plasma, oral, 25 mg, Cohort 4, 25 mg BID, Day 1
# [8] = human, plasma, oral, 25 mg, Cohort 4, 25 mg BID, Day 7
# [9] = human, plasma, oral, 25 mg, Cohort 4, 25 mg BID, Day 15
# [10] = human, plasma, oral, 30 mg, Cohort 3a, 30 mg QD, Day 1
# [11] = human, plasma, oral, 30 mg, Cohort 3a, 30 mg QD, Day 7
# [12] = human, plasma, oral, 30 mg, Cohort 3a, 30 mg QD, Day 15
# [13] = human, plasma, oral, 40 mg, Cohort 5, 40 mg BID, Day 1
# [14] = human, plasma, oral, 40 mg, Cohort 5, 40 mg BID, Day 7
# [15] = human, plasma, oral, 40 mg, Cohort 5, 40 mg BID, Day 15
smiles,measurement,setting,value
"C=CC(=O)N1C[C@H](Nc2ncnc3[nH]cc([C@H]4CC4(F)F)c23)CC[C@@H]1C [Compound I, 1-((2S,5R)-5-((5-((R)-2,2-difluorocyclopropyl)-7H-pyrrolo[2,3-d]pyrimidin-4-yl)amino)-2-methylpiperidin-1-yl)prop-2-en-1-one]",Geometric Mean Accumulation Ratio - AUCtau (Day 15/Day 1),"Cohort 1, 5 mg BID",1.2
same,Geometric Mean Accumulation Ratio - Cmax (Day 15/Day 1),"Cohort 1, 5 mg BID",1.2
same,Geometric Mean HL_Lambda_z,"Cohort 1, 5 mg BID, Day 1",1.51 h
same,Geometric Mean HL_Lambda_z,"Cohort 1, 5 mg BID, Day 7",1.50 h
same,Geometric Mean HL_Lambda_z,"Cohort 1, 5 mg BID, Day 15",1.65 h
same,Geometric Mean Accumulation Ratio - AUCtau (Day 15/Day 1),"Cohort 2, 15 mg BID",1.6
same,Geometric Mean Accumulation Ratio - Cmax (Day 15/Day 1),"Cohort 2, 15 mg BID",1.4
same,Geometric Mean HL_Lambda_z,"Cohort 2, 15 mg BID, Day 1",1.53 h
same,Geometric Mean HL_Lambda_z,"Cohort 2, 15 mg BID, Day 7",1.66 h
same,Geometric Mean HL_Lambda_z,"Cohort 2, 15 mg BID, Day 15",1.65 h
same,Geometric Mean Accumulation Ratio - AUCtau (Day 15/Day 1),"Cohort 3a, 30 mg QD",1.3
same,Geometric Mean Accumulation Ratio - Cmax (Day 15/Day 1),"Cohort 3a, 30 mg QD",1.1
same,Geometric Mean HL_Lambda_z,"Cohort 3a, 30 mg QD, Day 1",1.90 h
same,Geometric Mean HL_Lambda_z,"Cohort 3a, 30 mg QD, Day 7",1.87 h
same,Geometric Mean HL_Lambda_z,"Cohort 3a, 30 mg QD, Day 15",1.93 h
same,Geometric Mean Accumulation Ratio - AUCtau (Day 15/Day 1),"Cohort 4, 25 mg BID",1.4
same,Geometric Mean Accumulation Ratio - Cmax (Day 15/Day 1),"Cohort 4, 25 mg BID",1.3
same,Geometric Mean HL_Lambda_z,"Cohort 4, 25 mg BID, Day 1",1.70 h
same,Geometric Mean HL_Lambda_z,"Cohort 4, 25 mg BID, Day 7",1.91 h
same,Geometric Mean HL_Lambda_z,"Cohort 4, 25 mg BID, Day 15",1.97 h
same,Geometric Mean Accumulation Ratio - AUCtau (Day 15/Day 1),"Cohort 5, 40 mg BID",1.7
same,Geometric Mean Accumulation Ratio - Cmax (Day 15/Day 1),"Cohort 5, 40 mg BID",1.4
same,Geometric Mean HL_Lambda_z,"Cohort 5, 40 mg BID, Day 1",1.78 h
same,Geometric Mean HL_Lambda_z,"Cohort 5, 40 mg BID, Day 7",1.85 h
same,Geometric Mean HL_Lambda_z,"Cohort 5, 40 mg BID, Day 15",2.34 h
same,Dose proportionality of geometric mean exposure (Cmax and AUC),MAD,increases slightly greater than dose-proportional
same,Plasma concentration dose dependence,MAD,increased in a dose-dependent manner
same,Time to peak plasma concentration after dosing,MAD,≤ 2 h
same,AUC(0-inf),[1],27 ng·h/mL
same,AUC(0-t),[1],26 ng·h/mL
same,Cmax,"human, plasma, oral, 5 mg, Cohort 1, 5 mg BID, Day 1, read-out: Geometric Mean Cmax",10.8 ng/mL
same,Tmax,[1],36 min
same,AUC(0-inf),[2],32 ng·h/mL
same,AUC(0-t),[2],32 ng·h/mL
same,Cmax,"human, plasma, oral, 5 mg, Cohort 1, 5 mg BID, Day 7, read-out: Geometric Mean Cmax",13 ng/mL
same,Tmax,[2],46.2 min
same,AUC(0-inf),[3],32 ng·h/mL
same,AUC(0-t),[3],32 ng·h/mL
same,Cmax,"human, plasma, oral, 5 mg, Cohort 1, 5 mg BID, Day 15, read-out: Geometric Mean Cmax",12.5 ng/mL
same,Tmax,[3],46.2 min
same,AUC(0-inf),[4],71 ng·h/mL
same,AUC(0-t),[4],71 ng·h/mL
same,Cmax,"human, plasma, oral, 15 mg, Cohort 2, 15 mg BID, Day 1, read-out: Geometric Mean Cmax",28.8 ng/mL
same,Tmax,[4],48.6 min
same,AUC(0-inf),[5],110 ng·h/mL
same,AUC(0-t),[5],109 ng·h/mL
same,Cmax,"human, plasma, oral, 15 mg, Cohort 2, 15 mg BID, Day 7, read-out: Geometric Mean Cmax",42.5 ng/mL
same,Tmax,[5],46.2 min
same,AUC(0-inf),[6],111 ng·h/mL
same,AUC(0-t),[6],110 ng·h/mL
same,Cmax,"human, plasma, oral, 15 mg, Cohort 2, 15 mg BID, Day 15, read-out: Geometric Mean Cmax",38.9 ng/mL
same,Tmax,[6],57.6 min
same,Cmax,"human, plasma, oral, 15 mg, Human 15 mg, read-out: Cmax",38.9 ng/mL
same,AUC(0-inf),[7],175 ng·h/mL
same,AUC(0-t),[7],173 ng·h/mL
same,Cmax,"human, plasma, oral, 25 mg, Cohort 4, 25 mg BID, Day 1, read-out: Geometric Mean Cmax",64.3 ng/mL
same,Tmax,[7],50.4 min
same,AUC(0-inf),[8],265 ng·h/mL
same,AUC(0-t),[8],260 ng·h/mL
same,Cmax,"human, plasma, oral, 25 mg, Cohort 4, 25 mg BID, Day 7, read-out: Geometric Mean Cmax",89.6 ng/mL
same,Tmax,[8],48.6 min
same,AUC(0-inf),[9],245 ng·h/mL
same,AUC(0-t),[9],240 ng·h/mL
same,Cmax,"human, plasma, oral, 25 mg, Cohort 4, 25 mg BID, Day 15, read-out: Geometric Mean Cmax",81.8 ng/mL
same,Tmax,[9],42.6 min
same,Cmax,"human, plasma, oral, 25 mg, Human 25 mg, read-out: Cmax",81.8 ng/mL
same,AUC(0-inf),[10],312 ng·h/mL
same,AUC(0-t),[10],308 ng·h/mL
same,Cmax,"human, plasma, oral, 30 mg, Cohort 3a, 30 mg QD, Day 1, read-out: Geometric Mean Cmax",104 ng/mL
same,Tmax,[10],40.8 min
same,AUC(0-inf),[11],375 ng·h/mL
same,AUC(0-t),[11],366 ng·h/mL
same,Cmax,"human, plasma, oral, 30 mg, Cohort 3a, 30 mg QD, Day 7, read-out: Geometric Mean Cmax",124 ng/mL
same,Tmax,[11],52.2 min
same,AUC(0-inf),[12],400 ng·h/mL
same,AUC(0-t),[12],392 ng·h/mL
same,Cmax,"human, plasma, oral, 30 mg, Cohort 3a, 30 mg QD, Day 15, read-out: Geometric Mean Cmax",119 ng/mL
same,Tmax,[12],57.6 min
same,Cmax,"human, plasma, oral, 30 mg, Human 30 mg, read-out: Cmax",119 ng/mL
same,AUC(0-inf),[13],288 ng·h/mL
same,AUC(0-t),[13],285 ng·h/mL
same,Cmax,"human, plasma, oral, 40 mg, Cohort 5, 40 mg BID, Day 1, read-out: Geometric Mean Cmax",102 ng/mL
same,Tmax,[13],50.4 min
same,AUC(0-inf),[14],487 ng·h/mL
same,AUC(0-t),[14],480 ng·h/mL
same,Cmax,"human, plasma, oral, 40 mg, Cohort 5, 40 mg BID, Day 7, read-out: Geometric Mean Cmax",158 ng/mL
same,Tmax,[14],55.2 min
same,AUC(0-inf),[15],484 ng·h/mL
same,AUC(0-t),[15],472 ng·h/mL
same,Cmax,"human, plasma, oral, 40 mg, Cohort 5, 40 mg BID, Day 15, read-out: Geometric Mean Cmax",138 ng/mL
same,Tmax,[15],63 min
same,concentration at 6 h,"human, plasma, oral, 15 mg BID, steady-state, 6 hours post-dose",4.3 ng/mL
same,concentration at 8 h,"human, plasma, oral, 25 mg BID, steady-state, 8 hours post-dose",5.7 ng/mL
same,concentration at 11.5 h,"human, plasma, oral, 30 mg QD, steady-state, 11.5 hours post-dose",~4 ng/mL
same,AUC,"plasma, oral, Human 15 mg",110 ng·h/mL
same,AUC,"plasma, oral, Human 25 mg",240 ng·h/mL
same,AUC,"plasma, oral, Human 30 mg",392 ng·h/mL
